Assay results reported in the kinase profiling compilation of Christmann-Franck et al. (2016).
“And” between values parts separate entries of the source, which are not always exact repeats. Identical values can stand only once.

Columns and labels:
Experiment in all cases: radiometric filter-binding kinase assay, Kinase HotSpot
Conditions in all cases: compound 0.5 µM; ATP 10 µM
ADRBK2 (human) = ADRBK2 (human) (UniProt P35626)
AURKB (human) = AURKB (human) (UniProt Q96GD4)
BMX (human) = BMX (human) (UniProt P51813)
CDK1 CCNA2 (human) = CDK1 CCNA2 (human) (UniProt P06493+P20248)
CDK9 CCNK (human) = CDK9 CCNK (human) (UniProt O75909+P50750)
CDK9 CCNK (human), sequence (O75909 whole entry, looked up): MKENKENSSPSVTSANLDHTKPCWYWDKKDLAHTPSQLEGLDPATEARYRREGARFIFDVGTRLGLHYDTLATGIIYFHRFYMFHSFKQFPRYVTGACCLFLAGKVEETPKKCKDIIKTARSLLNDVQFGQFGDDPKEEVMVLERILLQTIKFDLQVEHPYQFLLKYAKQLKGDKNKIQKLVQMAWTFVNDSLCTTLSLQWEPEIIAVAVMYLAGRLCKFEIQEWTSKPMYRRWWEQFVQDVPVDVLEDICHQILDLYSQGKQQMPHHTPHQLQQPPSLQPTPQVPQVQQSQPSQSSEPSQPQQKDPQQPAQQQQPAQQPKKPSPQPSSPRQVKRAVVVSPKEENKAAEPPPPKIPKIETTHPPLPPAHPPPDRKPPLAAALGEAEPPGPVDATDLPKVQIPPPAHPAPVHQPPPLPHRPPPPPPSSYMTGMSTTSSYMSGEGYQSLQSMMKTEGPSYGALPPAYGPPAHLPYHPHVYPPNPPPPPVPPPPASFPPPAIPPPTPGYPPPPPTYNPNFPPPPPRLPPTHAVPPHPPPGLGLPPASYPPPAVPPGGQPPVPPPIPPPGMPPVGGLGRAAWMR
CDK9 CCNK (human), sequence (P50750 whole entry, looked up): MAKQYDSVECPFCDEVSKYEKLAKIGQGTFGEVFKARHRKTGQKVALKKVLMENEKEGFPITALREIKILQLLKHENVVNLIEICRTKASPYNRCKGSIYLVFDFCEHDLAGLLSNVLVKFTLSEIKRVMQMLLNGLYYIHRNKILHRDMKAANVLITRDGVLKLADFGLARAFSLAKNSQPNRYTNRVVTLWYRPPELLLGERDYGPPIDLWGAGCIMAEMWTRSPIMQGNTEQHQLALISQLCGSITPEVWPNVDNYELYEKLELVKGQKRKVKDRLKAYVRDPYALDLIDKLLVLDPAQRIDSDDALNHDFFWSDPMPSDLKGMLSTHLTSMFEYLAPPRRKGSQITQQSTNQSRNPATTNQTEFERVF

CDK9 CCNT1 (human) = CDK9 CCNT1 (human) (UniProt P50750+O60563)
CHEK2 (human) = CHEK2 (human) (UniProt O96017)
CSK (human) = CSK (human) (UniProt P41240)
DAPK1 (human) = DAPK1 (human) (UniProt P53355)
DMPK (human) = DMPK (human) (UniProt Q09013)
EPHA4 (human) = EPHA4 (human) (UniProt P54764)
EPHA7 (human) = EPHA7 (human) (UniProt Q15375)
EPHA7 (human), sequence (Q15375 whole entry, looked up): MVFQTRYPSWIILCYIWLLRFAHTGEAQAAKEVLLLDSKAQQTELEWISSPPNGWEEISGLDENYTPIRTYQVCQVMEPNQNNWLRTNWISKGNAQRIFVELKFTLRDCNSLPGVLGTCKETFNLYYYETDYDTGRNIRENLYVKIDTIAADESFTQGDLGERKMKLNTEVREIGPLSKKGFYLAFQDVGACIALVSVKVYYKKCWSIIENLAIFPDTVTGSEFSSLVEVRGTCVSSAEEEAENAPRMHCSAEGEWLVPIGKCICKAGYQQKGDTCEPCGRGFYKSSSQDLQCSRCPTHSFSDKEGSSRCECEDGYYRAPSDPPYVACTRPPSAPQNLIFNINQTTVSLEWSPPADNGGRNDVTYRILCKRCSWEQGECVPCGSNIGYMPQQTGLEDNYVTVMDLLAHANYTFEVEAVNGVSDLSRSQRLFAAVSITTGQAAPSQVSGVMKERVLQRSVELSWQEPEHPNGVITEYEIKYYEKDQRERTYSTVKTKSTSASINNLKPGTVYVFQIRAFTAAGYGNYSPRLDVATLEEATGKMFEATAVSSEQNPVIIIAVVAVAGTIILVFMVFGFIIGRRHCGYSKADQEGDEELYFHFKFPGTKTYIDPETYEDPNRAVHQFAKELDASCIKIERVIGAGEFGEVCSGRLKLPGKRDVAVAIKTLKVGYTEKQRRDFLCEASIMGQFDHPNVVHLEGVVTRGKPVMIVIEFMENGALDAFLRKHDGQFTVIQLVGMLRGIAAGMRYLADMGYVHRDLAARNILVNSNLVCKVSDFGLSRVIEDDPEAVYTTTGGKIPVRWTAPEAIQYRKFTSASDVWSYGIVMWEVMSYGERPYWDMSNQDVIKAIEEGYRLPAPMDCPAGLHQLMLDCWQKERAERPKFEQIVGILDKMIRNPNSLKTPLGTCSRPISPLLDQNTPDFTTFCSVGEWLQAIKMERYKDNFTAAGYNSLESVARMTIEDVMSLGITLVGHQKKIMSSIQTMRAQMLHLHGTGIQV

EPHA8 (human) = EPHA8 (human) (UniProt P29322)
GRK5 (human) = GRK5 (human) (UniProt P34947)
HIPK3 (human) = HIPK3 (human) (UniProt Q9H422)
INSR (human) = INSR (human) (UniProt P06213)
[1] = biological target: JAK1 JH1 catalytic (human) (UniProt P23458)
JAK3 JH1 JH2 (human) = JAK3 JH1 JH2 (human) (UniProt P52333)
KIT (human) = KIT (human) (UniProt P10721)
LRRK2 (human) = LRRK2 (human) (UniProt Q5S007)
MAP3K5 (human) = MAP3K5 (human) (UniProt Q99683)
MAP4K2 (human) = MAP4K2 (human) (UniProt Q12851)
MAPKAPK2 (human) = MAPKAPK2 (human) (UniProt P49137)
MATK (human) = MATK (human) (UniProt P42679)
MELK (human) = MELK (human) (UniProt Q14680)
NEK6 (human) = NEK6 (human) (UniProt Q9HC98)
NEK6 (human), sequence (Q9HC98 whole entry, looked up): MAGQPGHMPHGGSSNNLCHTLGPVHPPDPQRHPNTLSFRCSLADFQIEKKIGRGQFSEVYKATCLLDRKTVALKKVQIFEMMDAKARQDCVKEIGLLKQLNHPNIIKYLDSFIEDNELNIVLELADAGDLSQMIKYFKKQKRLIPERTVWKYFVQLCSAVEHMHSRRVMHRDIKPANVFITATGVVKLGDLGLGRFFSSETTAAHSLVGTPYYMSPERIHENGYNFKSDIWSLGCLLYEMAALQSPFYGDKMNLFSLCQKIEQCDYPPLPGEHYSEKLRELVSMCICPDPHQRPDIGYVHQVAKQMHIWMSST

NTRK3 (human) = NTRK3 (human) (UniProt Q16288)
NUAK1 (human) = NUAK1 (human) (UniProt O60285)
NUAK1 (human), sequence (O60285 whole entry, looked up): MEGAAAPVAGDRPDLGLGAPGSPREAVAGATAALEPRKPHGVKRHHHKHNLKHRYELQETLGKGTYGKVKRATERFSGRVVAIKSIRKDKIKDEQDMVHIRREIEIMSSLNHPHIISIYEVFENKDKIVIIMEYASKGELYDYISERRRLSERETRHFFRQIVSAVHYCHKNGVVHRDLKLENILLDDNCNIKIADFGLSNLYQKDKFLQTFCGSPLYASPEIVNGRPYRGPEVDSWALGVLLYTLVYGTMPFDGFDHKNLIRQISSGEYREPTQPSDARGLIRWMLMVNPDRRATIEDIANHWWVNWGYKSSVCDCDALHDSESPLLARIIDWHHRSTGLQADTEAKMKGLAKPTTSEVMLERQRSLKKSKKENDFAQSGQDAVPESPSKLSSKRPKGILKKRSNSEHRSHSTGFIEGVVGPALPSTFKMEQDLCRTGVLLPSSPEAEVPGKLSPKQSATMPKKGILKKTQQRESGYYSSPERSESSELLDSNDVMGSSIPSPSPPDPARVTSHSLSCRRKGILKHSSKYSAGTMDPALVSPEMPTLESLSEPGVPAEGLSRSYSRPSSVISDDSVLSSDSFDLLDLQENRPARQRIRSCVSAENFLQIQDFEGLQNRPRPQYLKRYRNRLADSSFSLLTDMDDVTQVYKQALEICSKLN

PAK7 (human) = PAK7 (human) (UniProt Q9P286)
PHKG2 (human) = PHKG2 (human) (UniProt P15735)
PIM2 (human) = PIM2 (human) (UniProt Q9P1W9)
PRKCH (human) = PRKCH (human) (UniProt P24723)
PRKD1 (human) = PRKD1 (human) (UniProt Q15139)
PRKD1 (human), sequence (Q15139 whole entry, looked up): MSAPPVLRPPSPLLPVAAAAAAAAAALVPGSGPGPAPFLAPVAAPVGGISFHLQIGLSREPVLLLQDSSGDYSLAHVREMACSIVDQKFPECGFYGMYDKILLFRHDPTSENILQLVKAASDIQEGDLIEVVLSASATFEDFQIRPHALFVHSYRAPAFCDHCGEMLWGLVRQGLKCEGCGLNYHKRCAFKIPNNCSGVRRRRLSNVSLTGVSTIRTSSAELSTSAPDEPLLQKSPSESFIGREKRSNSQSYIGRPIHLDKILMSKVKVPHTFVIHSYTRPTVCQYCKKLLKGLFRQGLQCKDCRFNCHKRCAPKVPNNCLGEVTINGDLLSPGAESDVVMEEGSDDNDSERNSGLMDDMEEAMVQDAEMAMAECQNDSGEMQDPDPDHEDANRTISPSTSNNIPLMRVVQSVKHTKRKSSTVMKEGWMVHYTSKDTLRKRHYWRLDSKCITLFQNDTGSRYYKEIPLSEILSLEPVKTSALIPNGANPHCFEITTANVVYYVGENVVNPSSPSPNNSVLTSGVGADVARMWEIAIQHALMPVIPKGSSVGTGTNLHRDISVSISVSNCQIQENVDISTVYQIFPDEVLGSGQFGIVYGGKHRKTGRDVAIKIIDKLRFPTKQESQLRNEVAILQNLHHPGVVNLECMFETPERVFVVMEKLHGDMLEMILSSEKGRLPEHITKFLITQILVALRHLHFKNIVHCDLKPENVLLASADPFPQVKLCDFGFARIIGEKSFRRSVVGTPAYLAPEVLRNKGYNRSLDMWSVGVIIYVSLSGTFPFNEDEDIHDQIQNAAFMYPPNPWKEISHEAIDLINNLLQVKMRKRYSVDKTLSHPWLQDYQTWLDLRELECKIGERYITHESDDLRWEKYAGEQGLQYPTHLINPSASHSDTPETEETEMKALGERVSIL

PRKG1 (human) = PRKG1 (human) (UniProt Q13976)
PRKG1 (human), sequence (Q13976 whole entry, looked up): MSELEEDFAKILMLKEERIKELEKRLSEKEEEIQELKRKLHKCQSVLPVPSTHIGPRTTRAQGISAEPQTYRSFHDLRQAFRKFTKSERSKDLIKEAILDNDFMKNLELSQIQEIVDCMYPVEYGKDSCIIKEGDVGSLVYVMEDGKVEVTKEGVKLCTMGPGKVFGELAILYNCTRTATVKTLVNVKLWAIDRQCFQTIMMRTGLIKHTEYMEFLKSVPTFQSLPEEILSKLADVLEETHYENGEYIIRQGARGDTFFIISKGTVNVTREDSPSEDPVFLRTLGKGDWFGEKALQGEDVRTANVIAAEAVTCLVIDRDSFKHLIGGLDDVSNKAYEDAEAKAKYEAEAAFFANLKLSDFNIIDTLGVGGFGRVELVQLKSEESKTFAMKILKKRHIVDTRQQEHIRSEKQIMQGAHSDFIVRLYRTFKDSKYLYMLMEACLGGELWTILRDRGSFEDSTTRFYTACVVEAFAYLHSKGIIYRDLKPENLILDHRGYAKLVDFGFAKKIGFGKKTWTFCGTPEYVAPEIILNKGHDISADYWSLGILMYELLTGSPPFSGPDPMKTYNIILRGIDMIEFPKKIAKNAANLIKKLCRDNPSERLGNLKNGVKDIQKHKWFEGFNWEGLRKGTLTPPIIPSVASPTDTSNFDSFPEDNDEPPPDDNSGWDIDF

SGK3 (human) = SGK3 (human) (UniProt Q96BR1)
STK24 (human) = STK24 (human) (UniProt Q9Y6E0)
STK3 (human) = STK3 (human) (UniProt Q13188)
STK39 (human) = STK39 (human) (UniProt Q9UEW8)
SYK (human) = SYK (human) (UniProt P43405)
TNK2 (human) = TNK2 (human) (UniProt Q07912)
TYRO3 (human) = TYRO3 (human) (UniProt Q06418)
YES1 (human) = YES1 (human) (UniProt P07947)
YES1 (human), sequence (P07947 whole entry, looked up): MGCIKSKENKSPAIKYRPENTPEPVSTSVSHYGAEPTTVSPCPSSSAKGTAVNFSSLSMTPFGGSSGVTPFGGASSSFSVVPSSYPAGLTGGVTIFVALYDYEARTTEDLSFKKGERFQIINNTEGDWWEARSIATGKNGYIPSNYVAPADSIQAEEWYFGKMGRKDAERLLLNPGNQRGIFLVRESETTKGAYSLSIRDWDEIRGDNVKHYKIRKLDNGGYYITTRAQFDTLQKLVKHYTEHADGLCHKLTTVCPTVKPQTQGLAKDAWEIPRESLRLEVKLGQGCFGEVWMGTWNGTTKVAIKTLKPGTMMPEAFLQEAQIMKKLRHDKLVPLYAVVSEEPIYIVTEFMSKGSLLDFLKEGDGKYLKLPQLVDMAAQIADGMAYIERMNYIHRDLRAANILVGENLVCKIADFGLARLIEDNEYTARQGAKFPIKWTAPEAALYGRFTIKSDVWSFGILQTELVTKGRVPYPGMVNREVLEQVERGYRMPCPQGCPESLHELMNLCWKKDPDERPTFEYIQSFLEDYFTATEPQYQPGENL

COc1ccc(S(=O)(=O)N(CCO)c2ccccc2CN(C)C/C=C/c2ccc(Cl)cc2)cc1 gave a residual activity (ADRBK2 (human)) of 105%, a residual activity (AURKB (human)) of 106% and a residual activity (BMX (human)) of 101%. For the same compound, the residual activity (CDK1 CCNA2 (human)) was 96.5%, the residual activity (CDK9 CCNK (human)) was 99.1% and the residual activity (CDK9 CCNT1 (human)) was 103%. It also gave a residual activity (CHEK2 (human)) of 101%, a residual activity (CSK (human)) of 95.6% and a residual activity (DAPK1 (human)) of 120%. For the same compound, the residual activity (DMPK (human)) was 105%, the residual activity (EPHA4 (human)) was 99.2% and the residual activity (EPHA7 (human)) was 98.9%. The residual activity (EPHA8 (human)) was 100%, the residual activity (GRK5 (human)) was 94.1% and the residual activity (HIPK3 (human)) was 104%. It also gave a residual activity (INSR (human)) of 103%, a residual activity [1] of 111% and a residual activity (JAK3 JH1 JH2 (human)) of 97%. For the same compound, the residual activity (KIT (human)) was 103%, the residual activity (LRRK2 (human)) was 101% and the residual activity (MAP3K5 (human)) was 93.7%. For the same compound, the residual activity (MAP4K2 (human)) was 92.6%, the residual activity (MAPKAPK2 (human)) was 102% and the residual activity (MATK (human)) was 101%. It also gave a residual activity (MELK (human)) of 99.4%, a residual activity (NEK6 (human)) of 103% and a residual activity (NTRK3 (human)) of 95.3%. For the same compound, the residual activity (NUAK1 (human)) was 96.5%, the residual activity (PAK7 (human)) was 107% and the residual activity (PHKG2 (human)) was 103%. It also gave a residual activity (PIM2 (human)) of 99.7%, a residual activity (PRKCH (human)) of 95.9% and a residual activity (PRKD1 (human)) of 100%. For the same compound, the residual activity (PRKG1 (human)) was 93.2% and 94.7%, the residual activity (SGK3 (human)) was 106% and the residual activity (STK24 (human)) was 101%. It also gave a residual activity (STK3 (human)) of 101%, a residual activity (STK39 (human)) of 92.8% and a residual activity (SYK (human)) of 101%. The residual activity (TNK2 (human)) was 94.1%, the residual activity (TYRO3 (human)) was 97.1% and the residual activity (YES1 (human)) was 103%.
